# PubChem BioAssay (NCI)
#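 A five-concentration, 48-hour dose response in 96-well plates underlies each endpoint, interpolated linearly between surrounding concentrations. TGI: total growth inhibition.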
# Assays:
# Assay in all cases: inhibition of tumour cell growth, NCI panel, 48 h
# [1] = system: 786-0 renal
# [2] = system: A498 renal
# [3] = system: A549 NSCLC
# [4] = system: ACHN renal
# [5] = system: BT-549 breast
# [6] = system: CAKI-1 renal
# [7] = system: CCRF-CEM leukemia
# [8] = system: COLO 205 colon
# [9] = system: DU-145 prostate
# [10] = system: EKVX NSCLC
# [11] = system: HCC-2998 colon
# [12] = system: HCT-116 colon
# [13] = system: HCT-15 colon
# [14] = system: HOP-62 NSCLC
# [15] = system: HOP-92 NSCLC
# [16] = system: HS 578T breast
# [17] = system: HT29 colon
# [18] = system: IGROV1 ovarian
# [19] = system: K-562 leukemia
# [20] = system: KM12 colon
# [21] = system: LOX IMVI melanoma
# [22] = system: M14 melanoma
# [23] = system: MALME-3M melanoma
# [24] = system: MCF7 breast
# [25] = system: MDA-MB-231 breast
# [26] = system: MDA-MB-435
# [27] = system: MDA-N
# [28] = system: MOLT-4 leukemia
# [29] = system: NCI-H23 lung
# [30] = system: NCI-H460 lung
# [31] = system: NCI-H522 lung
# [32] = system: NCI/ADR-RES ovarian
# [33] = system: OVCAR-3 ovarian
# [34] = system: OVCAR-4 ovarian
# [35] = system: OVCAR-5 ovarian
# [36] = system: OVCAR-8 ovarian
# [37] = system: PC-3 prostate
# [38] = system: RPMI-8226 leukemia
# [39] = system: SF-268 CNS
# [40] = system: SF-295 CNS
# [41] = system: SF-539 CNS
# [42] = system: SK-MEL-28 melanoma
# [43] = system: SK-MEL-5 melanoma
# [44] = system: SK-OV-3 ovarian
# [45] = system: SN12C renal
# [46] = system: SNB-19 CNS
# [47] = system: SNB-75 CNS
# [48] = system: SR leukemia
# [49] = system: SW-620 colon
# [50] = system: T-47D breast
# [51] = system: TK-10 renal
# [52] = system: U251 CNS
# [53] = system: UACC-257 melanoma
# [54] = system: UACC-62 melanoma
# [55] = system: UO-31 renal
# [56] = system: SK-MEL-2 melanoma
smiles,measurement,setting,value
OC(Cc1ccc2ccccc2n1)(C(F)(F)F)C(F)(F)F,TGI,[1],> 10 µM
same,TGI,[2],> 10 µM
same,TGI,[3],> 10 µM
same,TGI,[4],> 10 µM
same,TGI,[5],> 10 µM
same,TGI,[6],> 10 µM
same,TGI,[7],> 10 µM
same,TGI,[8],> 10 µM
same,TGI,[9],> 10 µM
same,TGI,[10],> 10 µM
same,TGI,[11],> 10 µM
same,TGI,[12],> 10 µM
same,TGI,[13],> 10 µM
same,TGI,[14],> 10 µM
same,TGI,[15],> 10 µM
same,TGI,[16],> 10 µM
same,TGI,[17],> 10 µM
same,TGI,[18],> 10 µM
same,TGI,[19],> 10 µM
same,TGI,[20],> 10 µM
same,TGI,[21],> 10 µM
same,TGI,[22],> 10 µM
same,TGI,[23],> 10 µM
same,TGI,[24],> 10 µM
same,TGI,[25],> 10 µM
same,TGI,[26],> 10 µM
same,TGI,[27],> 10 µM
same,TGI,[28],> 10 µM
same,TGI,[29],> 10 µM
same,TGI,[30],> 10 µM
same,TGI,[31],> 10 µM
same,TGI,[32],> 10 µM
same,TGI,[33],> 10 µM
same,TGI,[34],> 10 µM
same,TGI,[35],> 10 µM
same,TGI,[36],> 10 µM
same,TGI,[37],> 10 µM
same,TGI,[38],> 10 µM
same,TGI,[39],> 10 µM
same,TGI,[40],> 10 µM
same,TGI,[41],> 10 µM
same,TGI,[42],> 10 µM
same,TGI,[43],> 10 µM
same,TGI,[44],> 10 µM
same,TGI,[45],> 10 µM
same,TGI,[46],> 10 µM
same,TGI,[47],> 10 µM
same,TGI,[48],> 10 µM
same,TGI,[49],> 10 µM
same,TGI,[50],> 10 µM
same,TGI,[51],> 10 µM
same,TGI,[52],> 10 µM
same,TGI,[53],> 10 µM
same,TGI,[54],> 10 µM
same,TGI,[55],> 10 µM
O=C(Nc1ccc(Cl)cc1)/C(=C(/[O-])c1ccc(Br)cc1)[n+]1cccc(-c2ccc(Cl)cc2)n1,TGI,[1],14.3 µM
same,TGI,[2],> 100 µM
same,TGI,[3],> 100 µM
same,TGI,[4],46.1 µM
same,TGI,[5],9.35 µM
same,TGI,[6],6.66 µM
same,TGI,[8],> 100 µM
same,TGI,[9],> 100 µM
same,TGI,[10],19.3 µM
same,TGI,[11],24 µM
same,TGI,[12],13 µM
same,TGI,[13],51.7 µM
same,TGI,[14],29.2 µM
same,TGI,[15],> 100 µM
same,TGI,[16],9.65 µM
same,TGI,[18],14.8 µM
same,TGI,[19],> 100 µM
same,TGI,[20],9.86 µM
same,TGI,[21],> 100 µM
same,TGI,[22],18.5 µM
same,TGI,[23],11.3 µM
same,TGI,[24],3.28 µM
same,TGI,[25],> 100 µM
same,TGI,[26],25 µM
same,TGI,[27],> 100 µM
same,TGI,[28],> 100 µM
same,TGI,[29],9.04 µM
same,TGI,[30],16.5 µM
same,TGI,[31],6.83 µM
same,TGI,[32],31.6 µM
same,TGI,[33],12.9 µM
same,TGI,[34],29.4 µM
same,TGI,[35],21.7 µM
same,TGI,[36],14.2 µM
same,TGI,[37],> 100 µM
same,TGI,[38],> 100 µM
same,TGI,[39],19.5 µM
same,TGI,[40],11.2 µM
same,TGI,[56],12.3 µM
same,TGI,[42],71.1 µM
same,TGI,[43],> 100 µM
same,TGI,[44],33.7 µM
same,TGI,[45],8.44 µM
same,TGI,[46],> 100 µM
same,TGI,[47],26.1 µM
same,TGI,[48],> 100 µM
same,TGI,[49],> 100 µM
same,TGI,[50],5.14 µM
same,TGI,[51],67.8 µM
same,TGI,[52],> 100 µM
same,TGI,[53],> 100 µM
same,TGI,[54],22.8 µM
same,TGI,[55],42.6 µM
